Reference: patent US20220079931A1, “ESTROGEN RECEPTOR PROTEIN DEGRADERS” (THE REGENTS OF THE UNIVERSITY OF MICHIGAN, priority 2019, published 2022)

How the values were obtained:
[1] = molecular target: T1, VHL-ElonginBC complex (Homo sapiens, UniProt P40337); test: Fluorescence-polarization (FP) competitive binding assay for VHL; settings: VHL ligands; VHL-ElonginBC complex and fluorescent probe both 5 nM; read-out: FP Binding affinity IC50
T1 construct: His-TEV (His-tag with TEV protease site) (cleaved yes); made in house; host or cells: E. coli BL21(DE3)
Protocol: Cloning and Purification of VHL-ElonginBC complex. The DNA sequence of VHL (coding for residues 54-213) was constructed by PCR and inserted into a His-TEV expression vector^58 using ligation-independent cloning. The DNA sequences of Elongin B (encoding residues 1-118) and Elongin C (encoding residues 1-96) were constmcted by PCR and inserted into pCDFDuet 1 using Gibson assembly.^59 BL21(DE3) cells were transformed simultaneously with both plasmids and grown in Terrific Broth at 37° C. until an OD600 of 1.2. The cells were induced overnight with 0.4 mM IPTG at 24° C. Pelleted cells were freeze-thawed then resuspended in 20 mM Tris HCl pH7.0, 200 mM NaCl and 0.1% β-mercaptoethanol (bME) containing protease inhibitors. The cell suspension was lysed by sonication and debris removed via centrifugation. The supernatant was incubated at 4° C. for 1 hr with Ni-NTA (Qiagen) pre-washed in 20 mM Tris-HCl pH 7.0, 200 mM NaCl and 10 mM Imidazole. The protein complex was eluted in 20 mM Tris-HCl pH 7.0, 200 mM NaCl and 300 mM Imidazole, dialyzed into 20 mM Tris-HCl pH 7.0, 150 mM NaCl, and 0.01% bME and incubated with TEV protease overnight at 4° C. The protein sample was reapplied to the Ni-NTA column to remove the His-tag. The flow through containing the VHL complex was diluted to 75 mM NaCl and applied to a HiTrap Q column (GE Healthcare). The sample was eluted with a salt gradient (0.075-1 M NaCl), concentrated and further purified on a Superdex S75 column (GE Healthcare) pre-equilibrated with 20 mM Bis-Tris 7.0, 150 mM NaCl and 1 mM DTT. Samples were aliquoted and stored at −80° C.
Binding Affinities of VHL ligands to VHL. A fluorescence-polarization (FP) competitive assay was established using VHL-ElonginBC complex and a fluorescently tagged probe (SI). The IC50 and Ki values of VHL ligands were determined in competitive binding experiments. Mixtures of 5 μL of compounds in DMSO and 95 μL of preincubated protein/tracer complex solution were added into assay plates which were incubated at rt for 60 min with gentle shaking. Final concentrations of VHL-ElonginBC complex and fluorescent probe were both 5 nM. Negative controls containing protein/probe complex only (equivalent to 0% inhibition) and positive controls containing only free probes (equivalent to 100% inhibition) were included in each assay plate. FP values in millipolarization units (mP) were measured using the Infinite M-1000 plate reader (Tecan U.S., Research Triangle Park, N.C.) in Microfluor 1 96-well, black, round-bottom plates (Thermo Scientific, Waltham, Mass.) at an excitation wavelength of 485 nm and an emission wavelength of 530 nm. IC50 values were determined by nonlinear regression fitting of the competition curves. Ki values of competitive inhibitors were obtained directly by nonlinear regression fitting, based upon the KD values of the probe and concentrations of the protein and probe in the competitive assays. All the FP competitive experiments were performed in duplicate in three independent experiments.

[2] = molecular target: T2, ERα (Homo sapiens, UniProt P03372); test: ER degradation by Western blotting in MCF-7 cells; assay type: cell-based; set-up: host or cells: MCF-7; settings: 1 nM, 10 nM and 100 nM, 4 h, linkers containing 6-9 carbon atoms
T2 sequence (P03372 1-595): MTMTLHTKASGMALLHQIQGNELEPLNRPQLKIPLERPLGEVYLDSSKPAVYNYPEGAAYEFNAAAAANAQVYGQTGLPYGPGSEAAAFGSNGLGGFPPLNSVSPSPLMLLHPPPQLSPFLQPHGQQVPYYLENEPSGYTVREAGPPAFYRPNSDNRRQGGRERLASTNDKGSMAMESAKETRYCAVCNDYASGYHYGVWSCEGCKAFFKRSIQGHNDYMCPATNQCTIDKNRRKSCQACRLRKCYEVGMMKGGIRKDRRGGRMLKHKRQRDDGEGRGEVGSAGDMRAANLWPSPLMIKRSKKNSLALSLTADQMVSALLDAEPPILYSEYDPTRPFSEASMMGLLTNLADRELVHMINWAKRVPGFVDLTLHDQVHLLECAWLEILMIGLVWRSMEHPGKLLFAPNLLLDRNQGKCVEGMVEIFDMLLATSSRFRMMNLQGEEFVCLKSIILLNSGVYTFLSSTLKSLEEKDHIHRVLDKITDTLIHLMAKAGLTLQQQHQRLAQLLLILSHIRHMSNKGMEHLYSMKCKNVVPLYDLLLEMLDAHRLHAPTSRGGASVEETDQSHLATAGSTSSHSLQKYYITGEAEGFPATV
Protocol: FIG. 1 is an image showing the Western blotting analysis of ER protein in MCF-7 cells treated with Compounds of the Disclosure and control compounds. Cells were treated with different compounds for 4 h and whole cell lysates were then analyzed by Western blotting to examine the level of ER protein. GADPH protein was used for the loading control. The numbers below the panel represent the ERα/GADPH ratio normalized with the DMSO control at 100.
FIG. 2 is an image showing the Western blotting analysis of ER protein in the MCF-7 cells treated with indicated compounds at 1 nM, 10 nM and 100 nM. MCF-7 cells were treated with different compounds for 4 h and whole cell lysates were analyzed by Western blotting to examine the level of ER protein. GADPH protein was used for the loading control. The numbers below the panel represent the ERα/GADPH ratio normalized with the DMSO control at 100.
FIG. 7 is an image showing the ERα degradation dose-response Western blotting for compound 32 at 4 h in MCF-7 cells.
FIG. 9 is an image showing the time course of ERα degradation by Western blotting by compound 32 (30 nM) and fulvestrant (30 nM) in the MCF-7 cells.
Cell Culture. Human breast cancer cell lines MCF-7 (ATCC® HTB-22™) and T47D (ATCC® HTB-133™) were purchased from the American Type Culture Collection (ATCC), Manassas, Va., and maintained and cultured in Dulbecco's Modified Eagle's medium (DMEM) containing 10% fetal bovine serum, 1 unit/ml of penicillin and 1 μg/ml of streptomycin. Cells with 3-8 passages after purchase were used in experiments as indicated.
Western Blot Analysis. Western blot analysis was performed essentially as described previously (Hu et al, 2015, PMID: 26358219). Cells treated with indicated compounds were lysed in Radioimmunoprecipitation Assay Protein Lysis and Extraction Buffer (25 mmol/L Tris.HCl, pH 7.6, 150 mmol/L NaCl, 1% Nonidet P-40, 1% sodium deoxycholate, and 0.1% sodium dodecyl sulfate) containing proteinase inhibitor cocktail (Roche Diagnostics, Mannheim, Germany). After determination of protein concentration by BCA assay (Fisher Scientific, Pittsburgh, Pa.), equal amounts of total protein were electrophoresed through 10% SDS-polyacrylamide gels. The separated protein bands were transferred onto PVDF membranes (GE Healthcare Life Sciences, Marlborough, Mass.) and blotted against different antibodies, as indicated. The human estrogen receptor a antibodies (AB16460) were purchased from Abeam, Inc., Cambridge, Mass. The membranes were reblotted with horseradish peroxidase-conjugated anti-glyceraldehyde-3-phosphate dehydrogenase antibody (G9295) from Sigma-Aldrich Corporation, St. Louis, Mo. The blots were scanned and the band intensities were quantified using GelQuant.NET software as described in biochemlabsolutions.com. The relative mean intensity of target proteins was expressed after normalization to the intensity of glyceraldehyde-3-phosphate dehydrogenase bands from individual repeats.

Compound | IC50 [1] | ER degradation (Western blotting) [2]
CC(=O)N[C@H](C(=O)N1C[C@H](O)C[C@H]1C(=O)N[C@@H](C)c1ccc(C2CC2)cc1)C(C)(C)C [46a, (2S,4R)-1-((S)-2-acetamido-3,3-dimethylbutanoyl)-N—((S)-1-(4-cyclopropylphenyl)ethyl)-4-hydroxypyrrolidine-2-carboxamide] | 6.11 ± 0.82 µM | 
CCN(CCCCCCCC(=O)N[C@H](C(=O)N1C[C@H](O)C[C@H]1C(=O)N[C@@H](C)c1ccc(-c2scnc2C)cc1)C(C)(C)C)CCOc1ccc(C(=O)c2c(-c3ccc(O)cc3)sc3cc(O)ccc23)cc1 [compound 15, (2S,4R)-1-((S)-2-(8-(Ethyl(2-(4-(6-hydroxy-2-(4-hydroxyphenyl)benzo[b]thiophene-3-carbonyl)phenoxy)ethyl)amino)octanamido)-3,3-dimethylbutanoyl)-4-hydroxy-N—((S)-1-(4-(4-methylthiazol-5-yl)phenyl)ethyl)pyrrolidine-2-carboxamide] |  | surprisingly effective in inducing ER degradation at concentrations as low as 1 nM
CCN(CCCCCC(=O)N[C@H](C(=O)N1C[C@H](O)C[C@H]1C(=O)N[C@@H](C)c1ccc(-c2scnc2C)cc1)C(C)(C)C)CCOc1ccc(C(=O)c2c(-c3ccc(O)cc3)sc3cc(O)ccc23)cc1 [compound 18, (2S,4R)-1-((S)-2-(6-(Ethyl(2-(4-(6-hydroxy-2-(4-hydroxyphenyl)benzo[b]thiophene-3-carbonyl)phenoxy)ethyl)amino)hexanamido)-3,3-dimethylbutanoyl)-4-hydroxy-N—((S)-1-(4-(4-methylthiazol-5-yl)phenyl)ethyl)pyrrolidine-2-carboxamide] |  | surprisingly effective in inducing ER degradation at concentrations as low as 1 nM
CCN(CCCCCCC(=O)N[C@H](C(=O)N1C[C@H](O)C[C@H]1C(=O)N[C@@H](C)c1ccc(-c2scnc2C)cc1)C(C)(C)C)CCOc1ccc(C(=O)c2c(-c3ccc(O)cc3)sc3cc(O)ccc23)cc1 [compound 19, (2S,4R)-1-((S)-2-(7-(Ethyl(2-(4-(6-hydroxy-2-(4-hydroxyphenyl)benzo[b]thiophene-3-carbonyl)phenoxy)ethyl)amino)heptanamido)-3,3-dimethylbutanoyl)-4-hydroxy-N—((S)-1-(4-(4-methylthiazol-5-yl)phenyl)ethyl)pyrrolidine-2-carboxamide] |  | surprisingly effective in inducing ER degradation at concentrations as low as 1 nM
CCN(CCCCCCCCC(=O)N[C@H](C(=O)N1C[C@H](O)C[C@H]1C(=O)N[C@@H](C)c1ccc(-c2scnc2C)cc1)C(C)(C)C)CCOc1ccc(C(=O)c2c(-c3ccc(O)cc3)sc3cc(O)ccc23)cc1 [compound 20, (2S,4R)-1-((S)-2-(9-(Ethyl(2-(4-(6-hydroxy-2-(4-hydroxyphenyl)benzo[b]thiophene-3-carbonyl)phenoxy)ethyl)amino)nonanamido)-3,3-dimethylbutanoyl)-4-hydroxy-N—((S)-1-(4-(4-methylthiazol-5-yl)phenyl)ethyl)pyrrolidine-2-carboxamide] |  | surprisingly effective in inducing ER degradation at concentrations as low as 1 nM
CCN(CCCCCCCCCC(=O)N[C@H](C(=O)N1C[C@H](O)C[C@H]1C(=O)N[C@@H](C)c1ccc(-c2scnc2C)cc1)C(C)(C)C)CCOc1ccc(C(=O)c2c(-c3ccc(O)cc3)sc3cc(O)ccc23)cc1 [compound 21, (2S,4R)-1-((S)-2-(10-(Ethyl(2-(4-(6-hydroxy-2-(4-hydroxyphenyl)benzo[b]thiophene-3-carbonyl)phenoxy)ethyl)amino)decanamido)-3,3-dimethylbutanoyl)-4-hydroxy-N—((S)-1-(4-(4-methylthiazol-5-yl)phenyl)ethyl)pyrrolidine-2-carboxamide] |  | surprisingly effective in inducing ER degradation at concentrations as low as 1 nM

More lines, main results first:

IC50 [1] | Compound | ER degradation (Western blotting) [2]
7.87 ± 0.642 µM | CC(=O)N[C@H](C(=O)N1C[C@H](O)C[C@H]1C(=O)N[C@@H](C)c1ccc(Cl)cc1)C(C)(C)C [43a, (2S,4R)-1-((S)-2-acetamido-3,3-dimethylbutanoyl)-N—((S)-1-(4-chlorophenyl)ethyl)-4-hydroxypyrrolidine-2-carboxamide] | 
0.879 ± 0.097 µM | C#Cc1ccc([C@H](C)NC(=O)[C@@H]2C[C@@H](O)CN2C(=O)[C@@H](NC(C)=O)C(C)(C)C)cc1 [44a, (2S,4R)-1-((S)-2-acetamido-3,3-dimethylbutanoyl)-N—((S)-1-(4-ethynylphenyl)ethyl)-4-hydroxypyrrolidine-2-carboxamide] | 
4.83 ± 0.418 µM | CC(=O)N[C@H](C(=O)N1C[C@H](O)C[C@H]1C(=O)N[C@@H](C)c1ccc(C#N)cc1)C(C)(C)C [45a, (2S,4R)-1-((S)-2-acetamido-3,3-dimethylbutanoyl)-N—((S)-1-(4-cyanophenyl)ethyl)-4-hydroxypyrrolidine-2-carboxamide] | 
41 ± 6.67 µM | CC(=O)N[C@H](C(=O)N1C[C@H](O)C[C@H]1C(=O)N[C@@H](C)c1ccc(C(C)C)cc1)C(C)(C)C [47a, (2S,4R)-1-((S)-2-acetamido-3,3-dimethylbutanoyl)-4-hydroxy-N—((S)-1-(4-isopropylphenyl)ethyl)pyrrolidine-2-carboxamide] | 
